Measured values reported in ChEMBL document CHEMBL1136243, “Synthetic dihydropacidamycin antibiotics: a modified spectrum of activity for the pacidamycin class” (2003).
Converted amounts (≈) assume the structure as drawn.

Columns and labels:
Assay type in all cases: functional
Acinetobacter baumannii = test: Antibacterial activity against Acinetobacter baumannii resistant to (ERY) erythromycin;
Citrobacter freundii = test: Antibacterial activity against Citrobacter freundii resistant to (GEN) gentamicin; (ERY) erythromycin;
Escherichia coli [1] = test: Antibacterial activity against Escherichia coli resistant to (GEN) gentamicin; (RIF) rifampicin; (SM) streptomycin; (SP) spectinomycin; (SU) sulfonamides; (TET) tetracycline; (Hg)mercury
Escherichia coli [2] = test: Antibacterial activity against Escherichia coli wild-type
Klebsiella pneumoniae [3] = test: Antibacterial activity against Klebsiella pneumoniae
Klebsiella pneumoniae [4] = test: Antibacterial activity against Klebsiella pneumoniae resistant to (AMP) ampicillin; (GEN) gentamicin; NAL (nalidixic acid); (TET) tetracycline
[5] = system: Mycobacterium tuberculosis; test: Antibacterial activity against Mycobacterium tuberculosis TN913
[6] = system: Mycobacterium tuberculosis; test: Antibacterial activity against Mycobacterium tuberculosis H37Rv
[7] = system: Mycobacterium tuberculosis; test: Antibacterial activity against Mycobacterium tuberculosis TN1618 (P)
[8] = system: Mycobacterium tuberculosis; test: Antibacterial activity against Mycobacterium tuberculosis TN565 (W)
Pasteurella multocida = test: Antibacterial activity against Pasteurella multocida wild-type
Pseudomonas aeruginosa = test: Antibacterial activity against Pseudomonas aeruginosa wild-type
Salmonella sp. = test: Antibacterial activity against Salmonella species. resistant to (AMP) ampicillin; (ERY) erythromycin
Enterobacter cloacae = test: Antibacterial activity against Enterobacter cloacae resistant to (ERY) erythromycin;
Citrobacter koseri = test: Antibacterial activity against Citrobacter diversus
Escherichia coli [9] = test: Antibacterial activity against Escherichia coli resistant to (AMP) ampicillin;) KAN) kanamycin; (NM) neomycin; (RIF) rifampicin; (TET) tetracycline; (Hg)mercury
[10] = Escherichia coli, read-out: MIC

| SMILES | MIC [5] [µg/mL] | MIC [6] [µg/mL] | MIC [7] [µg/mL] | MIC [8] [µg/mL] | other results |
| --- | --- | --- | --- | --- | --- |
| C[C@H](N)C(=O)N(C)[C@@H](C)[C@H](NC(=O)[C@H](Cc1ccc(F)cc1)NC(=O)N[C@@H](Cc1ccc(O)cc1)C(=O)O)C(=O)NC[C@H]1C[C@@H](O)[C@H](n2ccc(=O)[nH]c2=O)O1 | 8 (≈ 10.2 µM) | 10 (≈ 12.7 µM) | 10 (≈ 12.7 µM) | 8 (≈ 10.2 µM) | MIC (Acinetobacter baumannii): ≥ 64 µg/mL; MIC (Citrobacter freundii): 1 µg/mL (≈ 1.27 µM); MIC (Escherichia coli [1]): 8 µg/mL (≈ 10.2 µM); MIC (Escherichia coli [2]): 4 µg/mL (≈ 5.1 µM); MIC (Escherichia coli [2]; [10]): 4 µg/mL (≈ 5.1 µM); MIC (Klebsiella pneumoniae [3]): 32 µg/mL (≈ 40.8 µM); MIC (Klebsiella pneumoniae [4]): ≥ 64 µg/mL; MIC (Pasteurella multocida): 512 µg/mL (≈ 652 µM); MIC (Pseudomonas aeruginosa): 64 µg/mL (≈ 81.5 µM); MIC (Salmonella sp.): 8 µg/mL (≈ 10.2 µM); MIC (Enterobacter cloacae): ≥ 64 µg/mL; MIC (Citrobacter koseri): 16 µg/mL (≈ 20.4 µM); MIC (Escherichia coli [9]): 8 µg/mL (≈ 10.2 µM) |
| CC(C)C[C@H](N)C(=O)N(C)[C@@H](C)[C@H](NC(=O)[C@H](Cc1ccccc1)NC(=O)N[C@@H](Cc1c[nH]c2ccccc12)C(=O)O)C(=O)NC[C@H]1C[C@@H](O)[C@H](n2ccc(=O)[nH]c2=O)O1 | 30 (≈ 36.1 µM) | 30 (≈ 36.1 µM) | 10 (≈ 12 µM) | 30 (≈ 36.1 µM) | – |
| CC(C)C[C@H](NC(=O)N[C@@H](Cc1c[nH]c2ccccc12)C(=O)O)C(=O)N[C@H](C(=O)NC[C@H]1C[C@@H](O)[C@H](n2ccc(=O)[nH]c2=O)O1)[C@H](C)N(C)C(=O)CN | > 30 | > 30 | > 30 | > 30 | – |
| C[C@H](N)C(=O)N(C)[C@@H](C)[C@H](NC(=O)[C@H](Cc1ccccc1)NC(=O)N[C@@H](Cc1c[nH]c2ccccc12)C(=O)O)C(=O)NC[C@H]1CC(O)[C@H](n2ccc(=O)[nH]c2=O)O1 (some centres undefined) | 8 (≈ 10.1 µM) | 8 (≈ 10.1 µM) | 8 (≈ 10.1 µM) | 4 (≈ 5.06 µM) | – |
| C[C@H](N)C(=O)N(C)[C@@H](C)[C@H](NC(=O)[C@H](Cc1ccc(F)cc1)NC(=O)N[C@@H](Cc1c[nH]c2ccccc12)C(=O)O)C(=O)NC[C@H]1C[C@@H](O)[C@H](n2ccc(=O)[nH]c2=O)O1 | 8 (≈ 9.9 µM) | 8 (≈ 9.9 µM) | 8 (≈ 9.9 µM) | 4 (≈ 4.95 µM) | – |
| C[C@H](N)C(=O)N(C)[C@@H](C)[C@H](NC(=O)[C@H](Cc1ccc(C(F)(F)F)cc1)NC(=O)N[C@@H](Cc1c[nH]c2ccccc12)C(=O)O)C(=O)NC[C@H]1C[C@@H](O)[C@H](n2ccc(=O)[nH]c2=O)O1 | 4 (≈ 4.66 µM) | 8 (≈ 9.33 µM) | 8 (≈ 9.33 µM) | 4 (≈ 4.66 µM) | – |
| CSCC[C@H](NC(=O)N[C@@H](Cc1ccc(O)cc1)C(=O)O)C(=O)N[C@H](C(=O)NC[C@H]1C[C@@H](O)[C@H](n2ccc(=O)[nH]c2=O)O1)[C@H](C)N(C)C(=O)[C@H](C)N | > 30 | > 30 | > 30 | > 30 | – |
| C[C@H](N)C(=O)N(C)[C@@H](C)[C@H](NC(=O)[C@H](Cc1ccccc1)NC(=O)N[C@@H](Cc1ccc2ccccc2c1)C(=O)O)C(=O)NC[C@H]1C[C@@H](O)[C@H](n2ccc(=O)[nH]c2=O)O1 | 30 (≈ 37.5 µM) | 30 (≈ 37.5 µM) | 10 (≈ 12.5 µM) | 30 (≈ 37.5 µM) | – |
| C[C@H](NC(=O)N[C@@H](Cc1c[nH]c2ccccc12)C(=O)O)C(=O)N[C@H](C(=O)NC[C@H]1C[C@@H](O)[C@H](n2ccc(=O)[nH]c2=O)O1)[C@H](C)N(C)C(=O)[C@@H](N)Cc1ccc(O)cc1 [PACIDAMYCIN] | > 30 | > 30 | > 30 | > 30 | MIC (Escherichia coli [2]; [10]): 256 µg/mL (≈ 318 µM); MIC (Pasteurella multocida): 128 µg/mL (≈ 159 µM); MIC (Pseudomonas aeruginosa): 16 µg/mL (≈ 19.9 µM) |
| C[C@H](N)C(=O)N(C)[C@@H](C)[C@H](NC(=O)[C@H](Cc1ccc(-c2ccccc2)cc1)NC(=O)N[C@@H](Cc1c[nH]c2ccccc12)C(=O)O)C(=O)NC[C@H]1C[C@@H](O)[C@H](n2ccc(=O)[nH]c2=O)O1 | 4 (≈ 4.62 µM) | 8 (≈ 9.24 µM) | 10 (≈ 11.5 µM) | 4 (≈ 4.62 µM) | – |
| C[C@@H]([C@H](NC(=O)[C@H](Cc1ccccc1)NC(=O)N[C@@H](Cc1c[nH]c2ccccc12)C(=O)O)C(=O)NC[C@H]1C[C@@H](O)[C@H](n2ccc(=O)[nH]c2=O)O1)N(C)C(=O)CN | – | – | – | – | MIC (Escherichia coli [2]; [10]): 256 µg/mL (≈ 330 µM); MIC (Pasteurella multocida): 64 µg/mL (≈ 82.5 µM); MIC (Pseudomonas aeruginosa): 8 µg/mL (≈ 10.3 µM) |
